# Measurements published in PubChem BioAssay (NCI).
#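 Results reflect a 48-hour exposure of cells in 96-well plates to compound at five concentrations. GI50 = concentration required for 50% inhibition of growth. TGI denotes the concentration required for complete inhibition of growth.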
# How the values were obtained:
# Test in all cases: DTP human tumour cell line panel, 48 h
# UACC-62 melanoma = system: UACC-62 melanoma
# SK-MEL-2 melanoma = system: SK-MEL-2 melanoma
# MDA-MB-231 breast = system: MDA-MB-231 breast
# PC-3 prostate = system: PC-3 prostate
# IGROV1 ovarian = system: IGROV1 ovarian
# BT-549 breast = system: BT-549 breast
# SK-MEL-5 melanoma = system: SK-MEL-5 melanoma
# CAKI-1 renal = system: CAKI-1 renal
# U251 CNS = system: U251 CNS
# T-47D breast = system: T-47D breast
# RXF 393 renal = system: RXF 393 renal
structure (smiles),measurement,setting,value
Cc1cc(NS(=O)(=O)c2ccc(Nc3c4ccccc4nc4c(C(=O)NCCO)cccc34)cc2)no1,TGI,UACC-62 melanoma,> 100 µM
same,TGI,SK-MEL-2 melanoma,74 µM
same,TGI,MDA-MB-231 breast,> 100 µM
same,TGI,PC-3 prostate,> 100 µM
same,TGI,IGROV1 ovarian,> 100 µM
same,TGI,BT-549 breast,40.3 µM
same,TGI,SK-MEL-5 melanoma,> 100 µM
same,TGI,CAKI-1 renal,88.2 µM
same,TGI,U251 CNS,> 100 µM
same,TGI,T-47D breast,> 100 µM
CC(=O)O[C@H]1C(=O)[C@@]2(C)[C@H]([C@H](OC(=O)c3ccccc3)[C@]3(O)C[C@H](OC(=O)[C@H](O)[C@@H](NC(=O)c4ccc(N(C)C)cc4)c4ccccc4)C(C)=C1C3(C)C)[C@]1(OC(C)=O)CO[C@@H]1C[C@@H]2O,TGI,UACC-62 melanoma,> 50 µM
same,TGI,RXF 393 renal,0.226 µM
same,TGI,MDA-MB-231 breast,> 50 µM
same,TGI,PC-3 prostate,> 50 µM
same,TGI,IGROV1 ovarian,> 50 µM
same,TGI,BT-549 breast,> 50 µM
same,TGI,SK-MEL-5 melanoma,> 22.1 µM
same,TGI,CAKI-1 renal,> 50 µM
same,TGI,U251 CNS,> 50 µM
same,TGI,T-47D breast,> 50 µM
OC12c3ccccc3C1CCCCCC21OCCCO1 (stereo not drawn),TGI,UACC-62 melanoma,> 100 µM
same,TGI,RXF 393 renal,> 100 µM
same,TGI,SK-MEL-2 melanoma,> 100 µM
same,TGI,IGROV1 ovarian,> 100 µM
same,TGI,SK-MEL-5 melanoma,> 100 µM
same,TGI,CAKI-1 renal,> 100 µM
same,TGI,U251 CNS,> 100 µM
COc1ccccc1C1C(C#N)=C(N)Oc2cc(O)ccc21 (stereo not drawn),GI50,RXF 393 renal,23.2 µM
same,TGI,RXF 393 renal,75.6 µM
same,GI50,SK-MEL-2 melanoma,23 µM
same,TGI,SK-MEL-2 melanoma,> 100 µM
same,GI50,MDA-MB-231 breast,4.34 µM
same,TGI,MDA-MB-231 breast,24.8 µM
same,GI50,IGROV1 ovarian,1.98 µM
same,TGI,IGROV1 ovarian,25.4 µM
same,GI50,BT-549 breast,24 µM
same,TGI,BT-549 breast,80.4 µM
same,GI50,SK-MEL-5 melanoma,22.4 µM
same,TGI,SK-MEL-5 melanoma,71.9 µM
same,GI50,CAKI-1 renal,17.7 µM
same,TGI,CAKI-1 renal,68.9 µM
same,GI50,U251 CNS,19.8 µM
same,TGI,U251 CNS,62.6 µM
same,GI50,T-47D breast,13.9 µM
same,TGI,T-47D breast,76.3 µM
O=C(c1ccco1)N(C(=S)N1CCN(c2ccccn2)CC1)c1ccccc1,TGI,UACC-62 melanoma,> 100 µM
same,TGI,RXF 393 renal,> 100 µM
same,TGI,SK-MEL-2 melanoma,> 100 µM
same,TGI,IGROV1 ovarian,> 100 µM
same,TGI,SK-MEL-5 melanoma,> 100 µM
same,TGI,CAKI-1 renal,> 100 µM
same,TGI,U251 CNS,> 100 µM
CCOC1CCN(C(=O)c2ccccc2)O1 (stereo not drawn),TGI,RXF 393 renal,> 10 µM
same,TGI,SK-MEL-2 melanoma,> 10 µM
same,TGI,MDA-MB-231 breast,> 10 µM
same,TGI,PC-3 prostate,> 10 µM
same,TGI,IGROV1 ovarian,> 10 µM
same,TGI,BT-549 breast,> 10 µM
same,TGI,SK-MEL-5 melanoma,> 10 µM
same,TGI,CAKI-1 renal,> 10 µM
same,TGI,T-47D breast,> 10 µM
O=C1NC(=Nc2ccccc2)C(=Nc2ccccc2)N1c1ccccc1,TGI,UACC-62 melanoma,25.3 µM
same,TGI,RXF 393 renal,29.2 µM
same,TGI,SK-MEL-2 melanoma,29.3 µM
same,TGI,MDA-MB-231 breast,35.6 µM
same,TGI,PC-3 prostate,27.6 µM
same,TGI,IGROV1 ovarian,31 µM
same,TGI,SK-MEL-5 melanoma,29.7 µM
same,TGI,CAKI-1 renal,31.7 µM
same,TGI,U251 CNS,28.9 µM
same,TGI,T-47D breast,33.2 µM
COc1ccc2c3c1OC1C(OC)(OC)CC4(C=C2)CN(C)CCC314 (stereo not drawn),TGI,UACC-62 melanoma,> 100 µM
same,TGI,RXF 393 renal,> 100 µM
same,TGI,MDA-MB-231 breast,> 100 µM
same,TGI,IGROV1 ovarian,> 100 µM
same,TGI,BT-549 breast,> 100 µM
same,TGI,SK-MEL-5 melanoma,> 100 µM
same,TGI,CAKI-1 renal,> 100 µM
same,TGI,U251 CNS,> 100 µM
same,TGI,T-47D breast,> 100 µM
Cc1ccc(SCC(OCn2cnc3c(Cl)nc(N)nc32)[C@H](C)F)cc1 (stereo partly drawn),TGI,UACC-62 melanoma,> 100 µM
same,TGI,SK-MEL-2 melanoma,> 100 µM
same,TGI,MDA-MB-231 breast,> 100 µM
same,TGI,PC-3 prostate,> 100 µM
same,TGI,IGROV1 ovarian,> 100 µM
same,TGI,BT-549 breast,> 100 µM
same,TGI,SK-MEL-5 melanoma,47.6 µM
same,TGI,CAKI-1 renal,> 100 µM
same,TGI,U251 CNS,> 100 µM
same,TGI,T-47D breast,> 100 µM
C=CCn1c(=N)/c(=C(\N)O)s/c1=C1/SC(=S)N(c2ccc(C)cc2)C1=O,TGI,UACC-62 melanoma,> 100 µM
same,TGI,SK-MEL-2 melanoma,> 100 µM
same,TGI,IGROV1 ovarian,> 100 µM
same,TGI,SK-MEL-5 melanoma,> 100 µM
same,TGI,U251 CNS,> 100 µM
CCn1c(CSc2nc(-c3ccccc3)c(-c3ccccc3)[nH]2)n[nH]c1=S,TGI,SK-MEL-2 melanoma,> 100 µM
same,TGI,IGROV1 ovarian,> 100 µM
same,TGI,SK-MEL-5 melanoma,> 100 µM
same,TGI,U251 CNS,> 100 µM
CC[n+]1c(/C=C/c2ccc(N(CCCl)CCCl)cc2)ccc2cc(I)ccc21,TGI,UACC-62 melanoma,1.68 µM
same,TGI,RXF 393 renal,3.77 µM
same,TGI,SK-MEL-2 melanoma,1.39 µM
same,TGI,IGROV1 ovarian,8.27 µM
same,TGI,CAKI-1 renal,6.19 µM
C/C(O[Si](C(C)C)(C(C)C)C(C)C)=C(\C)C(=O)N(C)c1ccccc1Cl,TGI,RXF 393 renal,> 100 µM
same,TGI,MDA-MB-231 breast,> 100 µM
same,TGI,IGROV1 ovarian,> 100 µM
same,TGI,BT-549 breast,> 100 µM
same,TGI,SK-MEL-5 melanoma,> 100 µM
same,TGI,CAKI-1 renal,> 100 µM
same,TGI,U251 CNS,> 100 µM
same,TGI,T-47D breast,> 100 µM
CCOC(=O)C1(C(=O)OCC)C=C(c2ccccc2)N(C2OC(COC(C)=O)C(OC(C)=O)C(OC(C)=O)C2OC(C)=O)C1=S (stereo not drawn),TGI,UACC-62 melanoma,> 100 µM
same,TGI,RXF 393 renal,> 100 µM
same,TGI,SK-MEL-2 melanoma,> 100 µM
same,TGI,MDA-MB-231 breast,> 100 µM
same,TGI,IGROV1 ovarian,> 100 µM
same,TGI,BT-549 breast,> 100 µM
same,TGI,SK-MEL-5 melanoma,> 100 µM
same,TGI,CAKI-1 renal,> 100 µM
same,TGI,U251 CNS,> 100 µM
same,TGI,T-47D breast,> 100 µM
CCN(CC)CCN1C(=O)C(=O)N(c2cccc3ccccc23)C1=O,TGI,UACC-62 melanoma,> 10 µM
same,TGI,RXF 393 renal,> 10 µM
same,TGI,SK-MEL-2 melanoma,> 10 µM
same,TGI,MDA-MB-231 breast,> 10 µM
same,TGI,PC-3 prostate,> 10 µM
same,TGI,IGROV1 ovarian,> 10 µM
same,TGI,SK-MEL-5 melanoma,> 10 µM
same,TGI,CAKI-1 renal,> 10 µM
same,TGI,U251 CNS,> 10 µM
same,TGI,T-47D breast,> 10 µM
C=CCN(CCN(CC=C)S(=O)(=O)c1ccc(C)cc1)S(=O)(=O)c1ccc(C)cc1,TGI,RXF 393 renal,> 100 µM
same,TGI,MDA-MB-231 breast,> 100 µM
same,TGI,PC-3 prostate,> 100 µM
same,TGI,SK-MEL-5 melanoma,> 100 µM
same,TGI,U251 CNS,> 100 µM
same,TGI,T-47D breast,> 100 µM
COc1ccc2oc(C(=O)N3CC(CCl)c4ccc(N)cc43)cc2c1 (stereo not drawn),TGI,UACC-62 melanoma,0.496 µM
same,TGI,RXF 393 renal,0.532 µM
same,TGI,SK-MEL-2 melanoma,0.72 µM
same,TGI,MDA-MB-231 breast,> 26.7 µM
same,TGI,PC-3 prostate,> 21.3 µM
same,TGI,IGROV1 ovarian,0.782 µM
same,TGI,BT-549 breast,1.85 µM
same,TGI,CAKI-1 renal,0.648 µM
same,TGI,U251 CNS,15.2 µM
same,TGI,T-47D breast,3.87 µM
Cc1ccc(/S(Cc2ccccc2)=N\S(=O)(=O)c2ccc(C)cc2)cc1 (stereo not drawn),TGI,RXF 393 renal,> 100 µM
same,TGI,PC-3 prostate,> 100 µM
same,TGI,BT-549 breast,> 100 µM
same,TGI,U251 CNS,> 100 µM
same,TGI,T-47D breast,> 100 µM
NC(N)=N/N=C/c1c(-c2cc([N+](=O)[O-])c(Cl)cc2Cl)nc2n1CCS2,TGI,UACC-62 melanoma,97.1 µM
same,TGI,RXF 393 renal,> 100 µM
same,TGI,SK-MEL-2 melanoma,9.45 µM
same,TGI,MDA-MB-231 breast,> 100 µM
same,TGI,PC-3 prostate,> 100 µM
same,TGI,IGROV1 ovarian,36.4 µM
same,TGI,BT-549 breast,9.7 µM
same,TGI,SK-MEL-5 melanoma,> 100 µM
same,TGI,CAKI-1 renal,> 100 µM
same,TGI,U251 CNS,> 100 µM
COc1ccc(/C(Cl)=C(\C=O)c2ccc(Cl)cc2)cc1OC,TGI,UACC-62 melanoma,39.9 µM
same,TGI,RXF 393 renal,20.7 µM
same,TGI,SK-MEL-2 melanoma,57.2 µM
same,TGI,IGROV1 ovarian,30.1 µM
same,TGI,SK-MEL-5 melanoma,> 100 µM
same,TGI,CAKI-1 renal,49.2 µM
same,TGI,U251 CNS,14.7 µM
O/N=C\C(=Nc1ccc(Cc2ccc(N=C(/C=N\O)NO)cc2)cc1)NO,TGI,UACC-62 melanoma,> 100 µM
same,TGI,SK-MEL-2 melanoma,> 100 µM
same,TGI,IGROV1 ovarian,> 100 µM
same,TGI,SK-MEL-5 melanoma,> 100 µM
same,TGI,CAKI-1 renal,69.2 µM
same,TGI,U251 CNS,> 100 µM
COc1cc(OC)c(OC)cc1/C=C/c1cc[n+](C)c2ccccc12,TGI,RXF 393 renal,> 100 µM
same,TGI,PC-3 prostate,75.1 µM
same,TGI,IGROV1 ovarian,> 100 µM
same,TGI,SK-MEL-5 melanoma,26.4 µM
same,TGI,CAKI-1 renal,> 100 µM
same,TGI,U251 CNS,> 100 µM
same,TGI,T-47D breast,> 100 µM
C=CCCC(=O)C(=[N+]=[N-])C(=O)CCC(=O)c1ccccc1,TGI,UACC-62 melanoma,> 10 µM
same,TGI,RXF 393 renal,> 10 µM
same,TGI,SK-MEL-2 melanoma,> 10 µM
same,TGI,MDA-MB-231 breast,> 10 µM
same,TGI,PC-3 prostate,> 10 µM
same,TGI,IGROV1 ovarian,> 10 µM
same,TGI,BT-549 breast,> 10 µM
same,TGI,SK-MEL-5 melanoma,> 10 µM
same,TGI,U251 CNS,> 10 µM
same,TGI,T-47D breast,> 10 µM
